In patent US10463644B2, “Uses of sesquiterpene lactone compounds and their derivatives in drugs preparation” (ACCENDATECH, priority 2013, dated 2019):

How the values were obtained:
normal cells = assay: Survival rate of normal cells after test compound is added (flow cytometry, Annexin V-FITC/PI); assay type: cell-based
From the text: (§1) Take fresh or cryopreserved clinical specimen (acute myelogenous leukemia (AML, marker is CD34^+/CD38^+), chronic myelogenous leukemia (CML, Ph+/CD34+/CXCR4+), chronic lymphocytic leukemia (CLL,CD133+/CD19−/CD38−), skin cancer (CD34+), breast cancer (CD44+/CD24−/ESA+), ovarian cancer (CD44+/CD117+), brain tumor (CD133+) prostate cancer (CD44+/CD24−), head-neck squamous cell carcinoma (CD44+), laryngeal cancer (CD133+), pancreatic cancer (ESA+/CD44+/CD24+), retinoblastoma (ABCG2/ALDH1), Children hepatoblastoma (CD34+/THY1+/c-kit+), liver cancer (CD133+), malignant melanoma (CD133+), colorectal cancer (EpCAM^high/CD44+), colon adenocarcinoma (CD44^high), glioma (ABCG-2/BCRP1), gastrointestinal tumor (ABCG-2/BCRP1), nasopharynx cancer (ABCG2), brain glioma (Dlk-1/Pref-1), gastric cancer (CD45+), lung adenocarcinoma (Sca-1/CD45-/Pecam-/CD34+), lung cancer (CD133+CD34+CD44+)) of patient. Take the acute myelogenous leukemia as the example, conduct density gradient centrifugation with Ficoll and take out the middle mononuclear cells, re-suspend it with serum-free IMDM after centrifuged. Adjust the concentration of cells into 1×10^6/mL and lay 24-well plate with 1 mL in each well, and then treat 18 hours with the compound to select with corresponding concentration. Collect the cells and centrifuge them at 1500 rps for 8 minutes, re-suspend the precipitation with […], mark the antibodies related to leukemia stem cell, avoid light to incubate 30 minutes at room temperature and then centrifuge it at 1500 rps, then wash away the unbound antibody CD34^+CD38^+. Re-suspend it with 100 μl 1× Binding Buffer and add respectively 5 μl Annexin V-FITC and PI, then avoid light to incubate 15 minutes before add 200 μl 1× Binding Buffer, then use flow cytometry to examine the marked apoptosis within one hour.

[1] = test system: PGE2 secreted by synoviocyte; assay: Content of PGE2 in culture supernatant of synoviocyte of RA model rats given test compound; assay type: in vivo; conditions: rat RA model, dose 30 mg/kg.2d; normal control 8.34 ± 1.29, NaCl 32.44 ± 10.32
From the text: Take Compound 1-50 prepared as per the method according to the present invention and employ the method provided in Reference to prepare model, group drugs and prepare culture supernatant of rat synoviocyte.
Employ the method provided in Reference to investigate the effects of the test compounds on the synoviocyte to secrete TNF-α and PGE2. Employ the method provided in Reference to investigate the effects of the test compounds on the synoviocyte to secrete IL-1β.
The experimental data of the test compound 1-50 at a dose of 30 mg/kg.2d as well as the normal control and NaCl group are as follows: […]

cancer cells = assay: Survival rate of cancer cells after test compound is added (flow cytometry, Annexin V-FITC/PI, clinical specimen); assay type: cell-based, patient
From the text: as §1

CN(C)C[C@@H]1C(=O)O[C@H]2[C@H]1CCC1(CC1)[C@@H]1CCC3(CC3)[C@H]21.Cl [Compound 28]
Survival rate (%) Stem cells (normal cells; 10.0 μM): 94% | Survival rate (%) All cells (Stem cells and ordinary cells) (normal cells; 20.0 μM): 95% | Survival rate (%) Stem cells (normal cells; 20.0 μM): 92% | Content of PGE2 in culture supernatant of synoviocyte (x ± s) [1]: 18.92 ± 1.98 ng/mL | Survival rate (%) All cells (Stem cells and ordinary cells) (cancer cells; AML, 10.0 μM): 94% | Survival rate (%) All cells (Stem cells and ordinary cells) (cancer cells; AML, 20.0 μM): 87% | Survival rate (%) All cells (Stem cells and ordinary cells) (cancer cells; Brain glioma, 10.0 μM): 89% | Survival rate (%) All cells (Stem cells and ordinary cells) (cancer cells; Brain glioma, 20.0 μM): 86% | Survival rate (%) All cells (Stem cells and ordinary cells) (cancer cells; Brain tumor, 10.0 μM): 91% | Survival rate (%) All cells (Stem cells and ordinary cells) (cancer cells; Brain tumor, 20.0 μM): 87% | Survival rate (%) All cells (Stem cells and ordinary cells) (cancer cells; Breast cancer, 10.0 μM): 87% | Survival rate (%) All cells (Stem cells and ordinary cells) (cancer cells; Breast cancer, 20.0 μM): 83% | Survival rate (%) All cells (Stem cells and ordinary cells) (cancer cells; CLL, 10.0 μM): 91% | Survival rate (%) All cells (Stem cells and ordinary cells) (cancer cells; CLL, 20.0 μM): 87% | Survival rate (%) All cells (Stem cells and ordinary cells) (cancer cells; CML, 10.0 μM): 92% | Survival rate (%) All cells (Stem cells and ordinary cells) (cancer cells; CML, 20.0 μM): 89% | Survival rate (%) All cells (Stem cells and ordinary cells) (cancer cells; Children hepatoblastoma, 10.0 μM): 92% | Survival rate (%) All cells (Stem cells and ordinary cells) (cancer cells; Children hepatoblastoma, 20.0 μM): 89% | Survival rate (%) All cells (Stem cells and ordinary cells) (cancer cells; Colon adenocarcinoma, 10.0 μM): 88% | Survival rate (%) All cells (Stem cells and ordinary cells) (cancer cells; Colon adenocarcinoma, 20.0 μM): 85% | Survival rate (%) All cells (Stem cells and ordinary cells) (cancer cells; Colorectal cancer, 10.0 μM): 87% | Survival rate (%) All cells (Stem cells and ordinary cells) (cancer cells; Colorectal cancer, 20.0 μM): 83% | Survival rate (%) All cells (Stem cells and ordinary cells) (cancer cells; Gastric cancer, 10.0 μM): 88% | Survival rate (%) All cells (Stem cells and ordinary cells) (cancer cells; Gastric cancer, 20.0 μM): 81% | Survival rate (%) All cells (Stem cells and ordinary cells) (cancer cells; Gastrointestinal tumor, 10.0 μM): 88% | Survival rate (%) All cells (Stem cells and ordinary cells) (cancer cells; Gastrointestinal tumor, 20.0 μM): 89% | Survival rate (%) All cells (Stem cells and ordinary cells) (cancer cells; Glioma, 10.0 μM): 93% | Survival rate (%) All cells (Stem cells and ordinary cells) (cancer cells; Glioma, 20.0 μM): 86% | Survival rate (%) All cells (Stem cells and ordinary cells) (cancer cells; Head and neck squamous cell carcinomas, 10.0 μM): 87% | Survival rate (%) All cells (Stem cells and ordinary cells) (cancer cells; Head and neck squamous cell carcinomas, 20.0 μM): 83% | Survival rate (%) All cells (Stem cells and ordinary cells) (cancer cells; Laryngeal cancer, 10.0 μM): 92% | Survival rate (%) All cells (Stem cells and ordinary cells) (cancer cells; Laryngeal cancer, 20.0 μM): 89% | Survival rate (%) All cells (Stem cells and ordinary cells) (cancer cells; Liver cancer, 10.0 μM): 91% | Survival rate (%) All cells (Stem cells and ordinary cells) (cancer cells; Liver cancer, 20.0 μM): 87% | Survival rate (%) All cells (Stem cells and ordinary cells) (cancer cells; Lung adenocarcinoma, 10.0 μM): 91% | Survival rate (%) All cells (Stem cells and ordinary cells) (cancer cells; Lung adenocarcinoma, 20.0 μM): 89% | Survival rate (%) All cells (Stem cells and ordinary cells) (cancer cells; Lung cancer, 10.0 μM): 94% | Survival rate (%) All cells (Stem cells and ordinary cells) (cancer cells; Lung cancer, 20.0 μM): 87% | Survival rate (%) All cells (Stem cells and ordinary cells) (cancer cells; Malignant melanoma, 10.0 μM): 91% | Survival rate (%) All cells (Stem cells and ordinary cells) (cancer cells; Malignant melanoma, 20.0 μM): 88% | Survival rate (%) All cells (Stem cells and ordinary cells) (cancer cells; Nasopharynx cancer, 10.0 μM): 92% | Survival rate (%) All cells (Stem cells and ordinary cells) (cancer cells; Nasopharynx cancer, 20.0 μM): 89% | Survival rate (%) All cells (Stem cells and ordinary cells) (cancer cells; Ovarian cancer, 10.0 μM): 88% | Survival rate (%) All cells (Stem cells and ordinary cells) (cancer cells; Ovarian cancer, 20.0 μM): 85% | Survival rate (%) All cells (Stem cells and ordinary cells) (cancer cells; Pancreatic cancer, 10.0 μM): 93% | Survival rate (%) All cells (Stem cells and ordinary cells) (cancer cells; Pancreatic cancer, 20.0 μM): 92% | Survival rate (%) All cells (Stem cells and ordinary cells) (cancer cells; Prostate cancer, 10.0 μM): 91% | Survival rate (%) All cells (Stem cells and ordinary cells) (cancer cells; Prostate cancer, 20.0 μM): 88% | Survival rate (%) All cells (Stem cells and ordinary cells) (cancer cells; Retinoblastoma, 10.0 μM): 90% | Survival rate (%) All cells (Stem cells and ordinary cells) (cancer cells; Retinoblastoma, 20.0 μM): 85% | Survival rate (%) All cells (Stem cells and ordinary cells) (cancer cells; Skin cancer, 10.0 μM): 91% | Survival rate (%) All cells (Stem cells and ordinary cells) (cancer cells; Skin cancer, 20.0 μM): 88%
